In patent US9169252B2 (BRISTOL-MYERS SQUIBB COMPANY, priority 2014, dated 2015) one finds EC50 and IC50 data, which are given here for 19 molecules.

Test [1] concerns TLR2 induced IL-6 in peripheral blood mononuclear cells (PBMCs). The test is described as follows: PBMC TLR2 Induced IL-6 Assay. The format is cell-based, human. As to conditions: Homo sapiens, PBMC, PBMC TLR2 Induced IL-6 Assay; lipoteichoic acid stimulation, IL-6 by ELISA; read-out: Cell EC50. The method, boiled down: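 Lipoteichoic acid at 10 µg/ml served as TLR2 stimulus for 5 hours, following a 30-minute compound pretreatment at 37° C. Cells were Ficoll-isolated human PBMCs, 250000 cells/well, cultured in RPMI plus 10% heat-inactivated FCS.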
Background: An ELISA detects its analyte on a solid surface through an enzyme-linked reagent.

The next test addresses IRAK4 (Homo sapiens (Human), UniProt Q9NWZ3). Description: IRAK4 Inhibition Assay. The format is biochemical. As to conditions: IRAK4 Inhibition Assay; ATP 500 μM; read-out: IRAK4 IC50. The method, boiled down:
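IRAK4 combined with fluorescent substrate and compounds, reacted 60 min at room temperature, stopped with 35 mM EDTA. Substrate and phosphorylated product separated electrophoretically on a Caliper LabChip 3000 mobility-shift reader.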

Structures are written as SMILES.

Chain of IRAK4 (Q9NWZ3 whole entry, species assumed): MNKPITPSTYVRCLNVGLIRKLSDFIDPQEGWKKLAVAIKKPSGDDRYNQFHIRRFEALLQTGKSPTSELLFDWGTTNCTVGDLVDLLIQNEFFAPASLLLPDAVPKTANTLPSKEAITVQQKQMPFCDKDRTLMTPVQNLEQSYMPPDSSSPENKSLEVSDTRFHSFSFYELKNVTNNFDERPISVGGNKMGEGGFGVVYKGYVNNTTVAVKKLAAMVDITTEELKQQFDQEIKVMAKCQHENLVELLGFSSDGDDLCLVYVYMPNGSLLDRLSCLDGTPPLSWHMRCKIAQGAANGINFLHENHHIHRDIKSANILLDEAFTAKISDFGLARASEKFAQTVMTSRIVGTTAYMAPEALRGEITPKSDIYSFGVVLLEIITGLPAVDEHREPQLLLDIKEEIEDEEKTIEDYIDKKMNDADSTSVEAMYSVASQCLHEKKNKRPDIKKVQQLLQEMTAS

For `COC(=O)N[C@H]1CC[C@H](NC(=O)c2cnc(-n3ccc4cc(C#N)cnc43)cc2NC(C)C)CC1` [Example 97, methyl((trans)-4-(6-(5-cyano-1H-pyrrolo[2,3-b]pyridin-1-yl)-4-(isopropylamino)nicotinamido)cyclohexyl)carbamate], the concentration for a half-maximal effect (EC50) (usually the concentration that produces a half-maximal response) in test [1] came to 108 nM. Besides, the IC50 (usually the point on the concentration scale where inhibition reaches its midpoint) at IRAK4 is 4.9 nM.
The like results for `CC(C)Nc1cc(-n2ccc3cc(C#N)cnc32)ncc1C(=O)N[C@H]1CC[C@H](O)CC1` [Example 98, 6-(5-cyano-1H-pyrrolo[2,3-b]pyridin-1-yl)-N-((trans)-4-hydroxycyclohexyl)-4-(isopropylamino)nicotinamide] were, in that order, 176 nM and 3.3 nM.
In the same order, the values of `CC(C)Nc1cc(-n2ccc3cc(C#N)cnc32)ncc1C(=O)N[C@H]1CC[C@](C)(O)CC1` [Example 99, 6-(5-cyano-1H-pyrrolo[2,3-b]pyridin-1-yl)-N-((trans)-4-hydroxy-4-methylcyclohexyl)-4-(isopropylamino)nicotinamide] are 223 nM and 4.6 nM.
For `CCNc1cc(-n2ccc3cc(C#N)cnc32)ncc1C(=O)N[C@H]1CC[C@H](C(C)(C)O)CC1` [Example 100, 6-(5-cyano-1H-pyrrolo[2,3-b]pyridin-1-yl)-4-(ethylamino)-N-((trans)-4-(2-hydroxypropan-2-yl)cyclohexyl)nicotinamide], the EC50 in test [1] is 95 nM. Also, the IC50 at IRAK4 turned out to be 2.5 nM.
In the same order, the values of `CS[C@H]1CC[C@H](NC(=O)c2cnc(-n3ccc4cc(C#N)cnc43)cc2NC(C)C)CC1` [Example 101, 6-(5-Cyano-1H-pyrrolo[2,3-b]pyridin-1-yl)-4-(isopropylamino)-N-((trans)-4-(methylthio)cyclohexyl)nicotinamide] are 112 nM and 7.8 nM.
As to `CC(C)Nc1cc(-n2ccc3cc(C#N)cnc32)ncc1C(=O)N[C@H]1CC[C@H](S(C)(=O)=O)CC1` [Example 102, 6-(5-Cyano-1H-pyrrolo[2,3-b]pyridin-1-yl)-4-(isopropylamino)-N-((trans)-4-(methylsulfonyl)cyclohexyl)nicotinamide], the EC50 in test [1] came out at 47 nM. The IC50 on IRAK4 turned out to be 3.6 nM.
In the same order, the values of `CS(=O)(=O)[C@H]1CC[C@H](NC(=O)c2cnc(-n3ccc4cc(C#N)cnc43)cc2NC2CCOCC2)CC1` [Example 103, 6-(5-Cyano-1H-pyrrolo[2,3-b]pyridin-1-yl)-N-((trans)-4-(methylsulfonyl)cyclohexyl)-4-((tetrahydro-2H-pyran-4-yl)amino)nicotinamide] are 125 nM and 3.5 nM.
For `CS(=O)(=O)[C@H]1CC[C@H](NC(=O)c2cnc(-n3ccc4cc(C#N)cnc43)cc2NC2CC2)CC1` [Example 104, 6-(5-Cyano-1H-pyrrolo[2,3-b]pyridin-1-yl)-4-(cyclopropylamino)-N-((trans)-4-(methylsulfonyl)cyclohexyl)nicotinamide], the EC50 in test [1] was determined as 67 nM. For the same molecule, the IC50 at IRAK4 turned out to be 1.7 nM.
The like results for `CS(=O)(=O)[C@H]1CC[C@H](NC(=O)c2cnc(-n3ccc4cc(C#N)cnc43)cc2Nc2cccc(C(N)=O)c2)CC1` [Example 105, 4-((3-Carbamoylphenyl)amino)-6-(5-cyano-1H-pyrrolo[2,3-b]pyridin-1-yl)-N-((trans)-4-(methylsulfonyl)cyclohexyl)nicotinamide] were, in that order, 437 nM and 3.9 nM.
In the case of `CC(CF)Nc1cc(-n2ccc3cncnc32)ncc1C(=O)NC[C@@H](F)C(C)(C)O` (stereo partly drawn) [Example 113, N—((R)-2-Fluoro-3-hydroxy-3-methylbutyl)-4-((1-fluoropropan-2-yl)amino)-6-(7H-pyrrolo[2,3-d]pyrimidin-7-yl)nicotinamide], the EC50 in test [1] worked out at 222 nM. The IC50 on IRAK4 is 1.9 nM.
The like results for `C[C@H](CF)Nc1cc(-n2ccc3cncnc32)ncc1C(=O)NC[C@@H](F)C(C)(C)O` [Example 115, N—((R)-2-fluoro-3-hydroxy-3-methylbutyl)-4-(((R)-1-fluoropropan-2-yl)amino)-6-(7H-pyrrolo[2,3-d]pyrimidin-7-yl)nicotinamide] were, in that order, 82 nM and 3.3 nM.
The like results for `C[C@@H](CF)Nc1cc(-n2ccc3cncnc32)ncc1C(=O)NC[C@@H](F)C(C)(C)O` [Example 116, N—((R)-2-fluoro-3-hydroxy-3-methylbutyl)-4-(((S)-1-fluoropropan-2-yl)amino)-6-(7H-pyrrolo[2,3-d]pyrimidin-7-yl)nicotinamide] were, in that order, 133 nM and 6.2 nM.
In the same order, the values of `C[C@@H](CF)Nc1cc(-n2ccc3cc(C#N)cnc32)ncc1C(=O)NC[C@@H](F)C(C)(C)O` [Example 117, 6-(5-cyano-1H-pyrrolo[2,3-b]pyridin-1-yl)-N—((R)-2-fluoro-3-hydroxy-3-methylbutyl)-4-(((S)-1-fluoropropan-2-yl)amino)nicotinamide] are 28 nM and 2.4 nM.
Turning to `C[C@H](CF)Nc1cc(-n2ccc3cc(C#N)cnc32)ncc1C(=O)NC[C@@H](F)C(C)(C)O` [Example 118, 6-(5-cyano-1H-pyrrolo[2,3-b]pyridin-1-yl)-N—((R)-2-fluoro-3-hydroxy-3-methylbutyl)-4-(((R)-1-fluoropropan-2-yl)amino)nicotinamide], the EC50 in test [1] was found to be 18 nM. Moreover, the IC50 at IRAK4 was 1.8 nM.
With `C[C@@H](CF)Nc1cc(-n2ccc3cc(C#N)cnc32)ncc1C(=O)NCCC(C)(C)O` [Example 119, (S)-6-(5-cyano-1H-pyrrolo[2,3-b]pyridin-1-yl)-4-((1-fluoropropan-2-yl)amino)-N-(3-hydroxy-3-methylbutyl)nicotinamide], in test [1], the EC50 was 91 nM. The concentration for half-maximal inhibition (IC50) on IRAK4 is 4.4 nM.
In the same order, the values of `C[C@H](CF)Nc1cc(-n2ccc3cc(C#N)cnc32)ncc1C(=O)NCCC(C)(C)O` [Example 120, (R)-6-(5-cyano-1H-pyrrolo[2,3-b]pyridin-1-yl)-4-((1-fluoropropan-2-yl)amino)-N-(3-hydroxy-3-methylbutyl)nicotinamide] are 105 nM and 5.1 nM.
For `C[C@@H](CF)Nc1cc(-n2ncc3cc(C#N)cnc32)ncc1C(=O)NC[C@@H](F)C(C)(C)O` [Example 121, 6-(5-cyano-1H-pyrazolo[3,4-b]pyridin-1-yl)-N—((R)-2-fluoro-3-hydroxy-3-methylbutyl)-4-(((S)-1-fluoropropan-2-yl)amino) nicotinamide], the EC50 in test [1] turned out to be 112 nM. Besides, at IRAK4, the IC50 is 5.2 nM.
The like results for `CNC(=O)[C@H]1CC[C@H](NC(=O)c2cnc(-n3ncc4cc(C#N)cnc43)cc2N[C@@H](C)CF)CC1` [Example 122, 6-(5-cyano-1H-pyrazolo[3,4-b]pyridin-1-yl)-4-(((S)-1-fluoropropan-2-yl)amino)-N-((1r,4S)-4-(methylcarbamoyl)cyclohexyl)nicotinamide] were, in that order, 501 nM and 16 nM.
With `CCNc1cc(-n2ccc3cc(C(N)=O)cnc32)ncc1C(=O)NC[C@@H](F)C(C)(C)O` [Example 123, (R)-1-(4-(Ethylamino)-5-((2-fluoro-3-hydroxy-3-methylbutyl)carbamoyl)pyridin-2-yl)-1H-pyrrolo[2,3-b]pyridine-5-carboxamide], in test [1], the EC50 was determined as 128 nM. In addition, the IC50 at IRAK4 is 4.5 nM.
